# Source: patent publication US20230021880A1, “Cladribine regimen for treating progressive forms of Multiple Sclerosis” (Merck Patent GmbH, priority 2017, published 2023)
# Where two headings read alike, the source gives them in different places.
# Experiments:
# [1] = Cladribine pharmacokinetics following oral administration; settings: MS patients; after oral administration of single 10-mg tablet
# [2] = Intracellular pharmacokinetics of Cd-AMP and Cd-ATP in patients with chronic myelogenous leukemia; settings: human, in vivo
# Experimental: After entering the target cells, Cladribine is phosphorylated to Cladribine monophosphate (Cd-AMP) by DCK (and also by deoxyguanosine kinase in the mitochondria). Cd-AMP is further phosphorylated to Cladribine diphosphate (Cd-ADP) and Cladribine triphosphate (Cd-ATP). The dephosphorylation and deactivation of Cd-AMP is catalyzed by cytoplasmic […].
# Intracellular half-life of Cd-ATP was 10 h.
# PPMS patients [3] = settings: cited from earlier work
# PPMS patients [4] = settings: ORATORIO, cited from earlier work
# PPMS patients [5] = settings: cited from earlier work; remark: listed apart in the source
compound,measurement,setting,value
Nc1nc(Cl)nc2nc[nH]c12 [2-chloroadenine],metabolite share of plasma parent drug exposure,[1],< 3%
"Nc1nc(Cl)nc2c1ncn2[C@H]1C[C@H](O)[C@@H](COP(=O)(O)OP(=O)(O)OP(=O)(O)O)O1 [Cd-ATP, 2-chlorodeoxyadenosine triphosphate]",half-life,[2],10 h
same,intracellular levels relative to Cd-AMP,[2],approximately half of the Cd-AMP levels
Cladribine monophosphate [Cd-AMP],Intracellular half-life,[2],15 h
glatiramer acetate,study outcome,PPMS patients [3]; PROMISE Study in PPMS,did not reach meaningful clinical endpoints
same,EDSS progression overall HR (95% CI),"PPMS patients [3]; PROMISE, CDP (3)",0.87
same,"% with CDP study drug, CDP (3) Month 12","PPMS patients [3]; PROMISE, PPMS",22%
same,"% with CDP study drug, CDP (3) Month 24","PPMS patients [3]; PROMISE, PPMS",41%
ocrelizumab: humanized monoclonal antibody that targets the CD20 surface molecule on B-cells,EDSS progression overall HR (95% CI),PPMS patients [4]; CDP (3),0.76
same,EDSS progression overall HR (95% CI),PPMS patients [4]; CDP (6),0.75
same,"% with CDP study drug, CDP (3) Week 120",PPMS patients [4],32.9%
same,"% with CDP study drug, CDP (6) Week 120",PPMS patients [4],29.7%
same,"% with CDP study drug, CDP (3) Month 12",PPMS patients [4]; derived from the KM,~13.2%
same,"% with CDP study drug, CDP (6) Month 12",PPMS patients [4]; derived from the KM,~15.2%
rituximab: study drug of the OLYMPUS study in PPMS,study outcome,PPMS patients [5]; OLYMPUS study in PPMS,did not reach meaningful clinical endpoints
same,EDSS progression overall HR (95% CI),"PPMS patients [5]; OLYMPUS, CDP (3)",0.77
same,"% with CDP study drug, CDP (3) Week 48","PPMS patients [5]; OLYMPUS, PPMS",20.2%
same,"% with CDP study drug, CDP (3) Week 96","PPMS patients [5]; OLYMPUS, PPMS",30.2%
same,"% with CDP study drug, CDP (6) Week 96","PPMS patients [5]; OLYMPUS, PPMS",27.3%
